Source: patent US20230234938A1 (RHIZEN PHARMACEUTICALS AG, priority 2020, published 2023)
Like-named read-outs stand apart in the source and are kept apart here.

How the values were obtained:
[1] = tested on: PAR in UWB 1.289 cells; assay: PAR inhibition in UWB 1.289 cells (western blot); format: cell-based, human
Method: Example-3 UWB 1.289 cells were plated at a predetermined density in a 6-well plate in its respective media and plates were incubated at 37° C. and 5% CO2 overnight. After overnight incubation, the plates were treated with desired concentrations of the compound or DMSO and the plates were incubated at 37° C. and 5% CO2 as required for 24 hours. After completion of 24 hours incubation, total cell lysates were prepared from the treated samples. Lysates were analysed by western-blot analysis and probed with Human PAR specific monoclonal antibody or human specific beta-actin monoclonal antibody (loading control). Western-blot images were developed after exposing them to chemiluminescent substrate and images were captured on imaging system. Target specific bands and loading specific bands were measured using densitometric analysis. Densitometric values of target specific bands were normalized to loading control values. % inhibition of PAR was calculated relative to DMSO treated samples. Results: % inhibitions values are given below in Table-2: […]

[2] = molecular target: PARP2 (Homo sapiens, UniProt Q9UGN5); assay: PARP enzyme assay (PARP2); format: biochemical
Description: Step 2: Ribosylation Reaction

[3] = molecular target: PARP1 (Homo sapiens, UniProt P09874); assay: PARP enzyme assay (PARP1, chemiluminescent histone ribosylation); details: for % inhibition 10 nM / % inhibition 100 nM: PARP enzyme assay; for % inhibition 10 nM: 10 nM compound, 0.01 µM; for % inhibition 100 nM: 100 nM compound, 0.1 µM
Sequence of PARP1 (P09874 whole entry, species assumed): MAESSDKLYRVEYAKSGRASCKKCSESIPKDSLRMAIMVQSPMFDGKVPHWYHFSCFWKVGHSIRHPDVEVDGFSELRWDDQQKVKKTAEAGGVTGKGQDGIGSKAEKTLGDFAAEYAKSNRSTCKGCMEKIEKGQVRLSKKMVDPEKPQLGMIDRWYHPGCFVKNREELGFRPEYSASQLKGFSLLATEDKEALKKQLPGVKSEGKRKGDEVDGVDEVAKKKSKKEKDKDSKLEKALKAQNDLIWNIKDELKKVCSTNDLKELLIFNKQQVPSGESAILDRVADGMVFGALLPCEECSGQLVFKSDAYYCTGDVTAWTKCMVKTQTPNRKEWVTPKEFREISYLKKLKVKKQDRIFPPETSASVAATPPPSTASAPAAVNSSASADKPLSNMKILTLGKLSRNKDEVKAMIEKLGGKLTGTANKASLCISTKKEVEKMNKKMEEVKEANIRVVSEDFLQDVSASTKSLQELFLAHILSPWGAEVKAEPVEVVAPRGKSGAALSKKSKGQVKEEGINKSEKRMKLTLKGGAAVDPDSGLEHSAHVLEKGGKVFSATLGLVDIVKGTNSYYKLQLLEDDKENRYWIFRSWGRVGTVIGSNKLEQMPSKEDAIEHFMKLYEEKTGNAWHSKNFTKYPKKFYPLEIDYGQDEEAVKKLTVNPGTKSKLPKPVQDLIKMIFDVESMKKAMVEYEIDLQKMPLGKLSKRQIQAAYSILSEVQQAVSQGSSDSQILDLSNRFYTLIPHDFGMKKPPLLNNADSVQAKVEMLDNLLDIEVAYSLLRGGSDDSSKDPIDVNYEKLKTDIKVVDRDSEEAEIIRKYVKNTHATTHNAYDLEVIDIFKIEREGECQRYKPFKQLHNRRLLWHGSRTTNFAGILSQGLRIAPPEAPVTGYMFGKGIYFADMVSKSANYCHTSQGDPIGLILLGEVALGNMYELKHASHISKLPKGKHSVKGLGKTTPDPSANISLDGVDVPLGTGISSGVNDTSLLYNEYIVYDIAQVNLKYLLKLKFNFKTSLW
Method: 1) Coat 25 µL of histone solution onto a 384-well plate as described below: • Dilute 5x histone mixture 1:5 with PBS. • Add 25 µL of diluted histone solution to each well and incubate at 4° C. overnight. • Wash the plate three times using 100 µL PBST buffer (1x PBS containing 0.05% Tween20) per well. • Tap plate onto clean paper towel to remove liquid. • Block the wells by adding 100 µL of Blocking buffer 3 to every well. Incubate at room temperature for 1 h 15 minutes. • Wash plate three times with 100 µL PBST buffer as described above. • Tap plate onto clean paper towel to remove liquid.
1) Preparation of 1X PARP Buffer: • Prepare 1x PARP buffer by adding 1 part of 10x PARP buffer to 9 parts distilled water (v/v). To prepare 500 µL of 1X PARP buffer, add 50 µL 10X PARP Assay buffer to 450 µL of H2O and mix well.
2) Preparation of the Ribosylation master mixture: • N wells x (1.25 µL 10x PARP buffer + 1.25 µL 10X PARP Assay mixture + 2.5 µL Activated DNA + 7.5 µL distilled water). Add 12.5 µL to every well.
3) Preparation of the inhibitor solution: • 10 mM stock solution of the inhibitor was prepared in DMSO. From 10 mM stock solution, 250X concentrations of the inhibitor were made in DMSO. • 250X DMSO concentrations of the inhibitor were further diluted to 10X concentrations in 1X kinase buffer. • 2.5 µL (10X concentrations) of kinase buffer containing inhibitor was added to each well. • For the “Positive Control” and “Blank”, add 2.5 µL of kinase buffer containing DMSO (4%) was added. • The final DMSO concentration in the well was 0.4 %.
4) Preparation of the enzyme solution: • Thaw PARP1 enzyme on ice. Upon first thaw, briefly spin tube containing enzyme to recover full content of the tube. Calculate the amount of PARP1 required for the assay and dilute enzyme to 2.0 ng/µL with 1x PARP buffer. • Initiate reaction by adding 10 µL of diluted PARP1 enzyme to the wells designated “Positive Control” and “Test Inhibitor”. • To the wells designated as “Blank”, add 10 µL of 1X PARP buffer. • Centrifuge the plate at 1000 rpm for 30 seconds and incubate at room temperature for 60 min. • Discard the reaction mixture after 1 hour, and wash plate three times with 100 µL PBST buffer and tap plate onto clean paper towel as described above.
1) Preparation of Streptavidin-HRP: • Dilute Streptavidin-HRP 1:50 in Blocking buffer. • Add 25 µL of diluted Streptavidin-HRP to each well. Incubate for 30 min. at room temperature. • Wash three times with 100 µL PBST buffer and tap plate onto clean paper towel as above as described above.
2) Preparation of ECL substrate: • Just before use, mix on ice equal amounts of ELISA ECL Substrate A and ELISA ECL Substrate B and add 50 µL per well. • Immediately read the plate in microtiter-plate in Chemiluminescence setting. The “Blank” value is subtracted from all other values.

Sequence of PARP2 (Q9UGN5 whole entry, species assumed): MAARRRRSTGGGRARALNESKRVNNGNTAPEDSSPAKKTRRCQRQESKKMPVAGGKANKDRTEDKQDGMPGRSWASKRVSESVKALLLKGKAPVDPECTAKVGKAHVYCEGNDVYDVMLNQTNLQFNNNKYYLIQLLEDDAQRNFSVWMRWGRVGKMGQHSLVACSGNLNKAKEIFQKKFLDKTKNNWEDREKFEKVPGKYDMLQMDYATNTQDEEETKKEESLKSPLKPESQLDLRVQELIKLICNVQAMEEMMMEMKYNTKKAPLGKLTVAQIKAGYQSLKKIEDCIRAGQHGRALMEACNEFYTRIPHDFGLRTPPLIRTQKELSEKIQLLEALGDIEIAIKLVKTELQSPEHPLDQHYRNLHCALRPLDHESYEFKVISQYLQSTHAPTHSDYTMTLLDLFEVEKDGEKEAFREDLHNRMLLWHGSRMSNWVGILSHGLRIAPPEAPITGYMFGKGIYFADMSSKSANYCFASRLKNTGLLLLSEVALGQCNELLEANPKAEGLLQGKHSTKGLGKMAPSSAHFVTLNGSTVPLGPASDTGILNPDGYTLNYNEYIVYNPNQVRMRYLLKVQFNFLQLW

Compound | melting point | inhibition at 0.01 µM ([3]; read-out: % inhibition 10 nM) | inhibition at 0.1 µM ([3]; read-out: % inhibition 100 nM) | other results
CC1(O)C(=O)N(c2cncc(Cc3n[nH]c(=O)c4cc(F)ccc34)c2)c2ccccc21 (single isomer, unassigned; (+)) [Example 7, (+)-7-Fluoro-4-((5-(3-hydroxy-3-methyl-2-oxoindolin-1-yl)pyridin-3-yl)methyl)phthalazin-1(2H)-one] | 148 to 151 °C | – | – | PAR % inhibition in UWB 1.289 @ 10 nM ([1]; UWB 1.289 cells, 10 nM, 24 hours, western blot relative to DMSO, 0.01 µM): A (A represents >75% to 100%); IC50 [2]: < 10 nM
O=C1N(c2cncc(Cc3n[nH]c(=O)c4ccccc34)c2)c2ccccc2C1(O)C(F)(F)F (single isomer, unassigned; (+)) [Example 26, (+)-4-((5-(3-Hydroxy-2-oxo-3-(trifluoromethyl)indolin-1-yl)pyridin-3-yl)methyl)phthalazin-1(2H)-one] | 170 to 174 °C | – | – | % inhibition 10 nM [3]: A (A represents >75% to 100%); % inhibition 100 nM [3]: A (A represents >75% to 100%)
CC1(O)C(=O)N(c2cc(Cc3n[nH]c(=O)c4ccccc34)ccn2)c2ccccc21 (single isomer, unassigned; (-)) [Example 19, (-)-4-((2-(3-Hydroxy-3-methyl-2-oxoindolin-1-yl)pyridin-4-yl)methyl)phthalazin-1(2H)-one] | 207 to 210 °C | – | – | IC50 [3]: < 10 nM; inhibition at 0.01 µM ([3]; read-out: % inhibition 10 nM, PARP enzyme assay, 10 nM compound): 75 to 100%; inhibition at 0.1 µM ([3]; read-out: % inhibition 100 nM, PARP enzyme assay, 100 nM compound): 75 to 100%; IC50 [2]: < 10 nM
O=C1N(c2cncc(Cc3n[nH]c(=O)c4ccccc34)c2)c2ccccc2C1(O)C(F)(F)F (single isomer, unassigned; (-)) [Example 27, (-)-4-((5-(3-Hydroxy-2-oxo-3-(trifluoromethyl)indolin-1-yl)pyridin-3-yl)methyl)phthalazin-1(2H)-one] | 210 to 214 °C | – | – | % inhibition 10 nM [3]: C (C represents >25% to ≤50%); % inhibition 100 nM [3]: C (C represents >25% to ≤50%)
C[C@]1(O)C(=O)N(c2cncc(Cc3n[nH]c(=O)c4ccccc34)c2)c2ccccc21 [Example 2, (R)-(+)-4-((5-(3-Hydroxy-3-methyl-2-oxoindolin-1-yl)pyridin-3-yl)methyl)phthalazin-1(2H)-one] | – | – | – | inhibition at 0.01 µM ([1]; Homo sapiens, UWB1289, 24 h, read-out: PAR % inhibition in UWB 1.289 @ 10 nM, UWB 1.289 cells, 10 nM, 24 hours, western blot relative to DMSO): 75 to 100%; IC50 [3]: < 10 nM; IC50 [2]: < 10 nM
CC1(O)C(=O)N(c2cc(Cc3n[nH]c(=O)c4ccccc34)ccc2F)c2ccccc21 (stereo not drawn) [Example 4, 4-(4-Fluoro-3-(3-hydroxy-3-methyl-2-oxoindolin-1-yl)benzyl)phthalazin-1(2H)-one] | 131 to 134 °C | 75 to 100% | 75 to 100% | –
CCC1(O)C(=O)N(c2cncc(Cc3n[nH]c(=O)c4ccccc34)c2)c2ccccc21 (stereo not drawn) [Example 5, 4-((5-(3-Ethyl-3-hydroxy-2-oxoindolin-1-yl)pyridin-3-yl)methyl)phthalazin-1(2H)-one] | 117 to 120 °C | 75 to 100% | 75 to 100% | –
CC1(O)C(=O)N(c2cncc(Cc3n[nH]c(=O)c4cc(F)ccc34)c2)c2ccccc21 (stereo not drawn) [Example 6, 7-Fluoro-4-((5-(3-hydroxy-3-methyl-2-oxoindolin-1-yl)pyridin-3-yl)methyl)phthalazin-1(2H)-one] | 133 to 136 °C | – | – | IC50 [2]: < 10 nM
CC1(O)C(=O)N(c2cncc(Cc3n[nH]c(=O)c4ccc(F)cc34)c2)c2ccccc21 (stereo not drawn) [Example 9, 6-Fluoro-4-((5-(3-hydroxy-3-methyl-2-oxoindolin-1-yl)pyridin-3-yl)methyl)phthalazin-1(2H)-one] | 132 to 135 °C | 75 to 100% | 75 to 100% | –
CC1(O)C(=O)N(c2cncc(Cc3n[nH]c(=O)c4cc(F)ccc34)c2)c2ccc(F)cc21 (stereo not drawn) [Example 10, 7-Fluoro-4-((5-(5-fluoro-3-hydroxy-3-methyl-2-oxoindolin-1-yl)pyridin-3-yl)methyl)phthalazin-1(2H)-one] | 157 to 160 °C | 75 to 100% | 75 to 100% | IC50 [3]: < 10 nM
CC1(O)C(=O)N(c2cncc(Cc3n[nH]c(=O)c4ccccc34)c2)c2ccc(F)cc21 (stereo not drawn) [Example 13, 4-((5-(5-Fluoro-3-hydroxy-3-methyl-2-oxoindolin-1-yl)pyridin-3-yl)methyl)phthalazin-1(2H)-one] | 116 to 120 °C | 75 to 100% | 75 to 100% | IC50 [3]: < 10 nM; IC50 [2]: < 10 nM
CC1(O)C(=O)N(c2cncc(Cc3n[nH]c(=O)c4ccccc34)c2)c2cc(F)ccc21 (stereo not drawn) [Example 16] | 125 to 128 °C | 75 to 100% | 75 to 100% | –
CC1(O)C(=O)N(c2cncc(Cc3n[nH]c(=O)c4cc(F)ccc34)c2)c2cc(F)ccc21 (stereo not drawn) [Example 17, 7-Fluoro-4-((5-(6-fluoro-3-hydroxy-3-methyl-2-oxoindolin-1-yl)pyridin-3-yl)methyl)phthalazin-1(2H)-one] | 219 to 221 °C | 75 to 100% | 75 to 100% | –
CC1(O)C(=O)N(c2cc(Cc3n[nH]c(=O)c4ccccc34)ccn2)c2ccccc21 (stereo not drawn) [Example 18, 4-((2-(3-hydroxy-3-methyl-2-oxoindolin-1-yl)pyridin-4-yl)methyl)phthalazin-1(2H)-one] | 203 to 205 °C | 75 to 100% | 75 to 100% | IC50 [3]: < 10 nM; IC50 [2]: < 10 nM

Second part, led by results:

melting point | inhibition at 0.01 µM ([3]; read-out: % inhibition 10 nM) | inhibition at 0.1 µM ([3]; read-out: % inhibition 100 nM) | Compound | other results
240 to 243 °C | 75 to 100% | 75 to 100% | CC1(O)C(=O)N(c2cccc(Cc3n[nH]c(=O)c4ccccc34)c2)c2ccccc21 (stereo not drawn) [Example 28, 4-(3-(3-Hydroxy-3-methyl-2-oxoindolin-1-yl)benzyl)phthalazin-1(2H)-one] | –
207 to 210 °C | 75 to 100% | 75 to 100% | CC1(O)C(=O)N(c2cc(Cc3n[nH]c(=O)c4cc(F)ccc34)ccc2F)c2ccccc21 (stereo not drawn) [Example 29, 7-Fluoro-4-(4-fluoro-3-(3-hydroxy-3-methyl-2-oxoindolin-1-yl)benzyl)phthalazin-1(2H)-one] | –
207 to 210 °C | 25 to 50% | 75 to 100% | COC1(C)C(=O)N(c2cncc(Cc3n[nH]c(=O)c4ccccc34)c2)c2ccccc21 (stereo not drawn) [Example 30, 4-((5-(3-methoxy-3-methyl-2-oxoindolin-1-yl)pyridin-3-yl)methyl)phthalazin-1(2H)-one] | –
133 to 136 °C | 25 to 50% | 75 to 100% | CC1(O)C(=O)N(c2cccc(Cc3n[nH]c(=O)c4ccccc34)c2)c2cnccc21 (stereo not drawn) [Example 31, 4-(3-(3-Hydroxy-3-methyl-2-oxo-2,3-dihydro-1H-pyrrolo[2,3-c]pyridin-1-yl)benzyl)phthalazin-1(2H)-one] | –
237 to 239 °C | 75 to 100% | 75 to 100% | CC(=O)OC1(C)C(=O)N(c2cncc(Cc3n[nH]c(=O)c4ccccc34)c2)c2ccccc21 (stereo not drawn) [Example 32, 3-Methyl-2-oxo-1-(5-((4-oxo-3,4-dihydrophthalazin-1-yl)methyl)pyridin-3-yl)indolin-3-yl acetate] | –
232 to 235 °C | 75 to 100% | 75 to 100% | O=C1Cc2ccccc2N1c1cc(Cc2n[nH]c(=O)c3ccccc23)ccc1F [Example 33, 4-(4-Fluoro-3-(2-oxoindolin-1-yl)benzyl)phthalazin-1(2H)-one] | –
129 to 132 °C | 75 to 100% | 75 to 100% | CC1(C)C(=O)N(c2cc(Cc3n[nH]c(=O)c4ccccc34)ccc2F)c2ccccc21 [Example 34, 4-(3-(3,3-Dimethyl-2-oxoindolin-1-yl)-4-fluorobenzyl)phthalazine-1(2H)-one] | –
221 to 224 °C | 75 to 100% | 75 to 100% | CC1(C)C(=O)N(c2cncc(Cc3n[nH]c(=O)c4ccccc34)c2)c2ccccc21 [Example 35, 4-((5-(3,3-Dimethyl-2-oxoindolin-1-yl)pyridin-3-yl)methyl)phthalazin-1(2H)-one] | –
242 to 245 °C | 25 to 50% | 75 to 100% | CC1(C)C(=O)N(c2cncc(Cc3n[nH]c(=O)c4ccccc34)c2)c2cccnc21 [Example 36, 4-((5-(3,3-Dimethyl-2-oxo-2,3-dihydro-1H-pyrrolo[3,2-b]pyridin-1-yl)pyridin-3-yl)methyl)phthalazin-1(2H)-one] | –
114 to 117 °C | 25 to 50% | 75 to 100% | CC1(C)C(=O)N(c2cc(Cc3n[nH]c(=O)c4ccccc34)ccc2F)c2cccnc21 [Example 37, 4-(3-(3,3-Dimethyl-2-oxo-2,3-dihydro-1H-pyrrolo[3,2-b]pyridin-1-yl)-4-fluorobenzyl)phthalazin-1(2H)-one] | –
219 to 222 °C | 75 to 100% | 75 to 100% | O=C1N(c2cncc(Cc3n[nH]c(=O)c4ccccc34)c2)c2ccccc2C12CC2 [Example 38, 1′-(5-((4-Oxo-3,4-dihydrophthalazin-1-yl)methyl)pyridin-3-yl)spiro[cyclopropane-1,3′-indolin]-2′-one] | –
